Data on 21 compounds can be found in ChEMBL document CHEMBL1201862, “PubChem BioAssay data set” (2004).

The source made the active and inactive calls. Bounds are passed on as bounds.

Data set [1] addresses T1, Peroxisome proliferator-activated receptor gamma/Nuclear receptor coactivator 2 (Homo sapiens, UniProt P37231). The data set is classed as functional.
In data set [2] the target is T2, Peroxisome proliferator-activated receptor gamma/Nuclear receptor coactivator 1 (Homo sapiens, UniProt P37231). The data set is classed as functional.
Data set [3] addresses T3, Peroxisome proliferator-activated receptor gamma/Nuclear receptor coactivator 3 (Homo sapiens, UniProt P37231). It counts as functional.
The target of data set [4] is T2, Peroxisome proliferator-activated receptor gamma/Nuclear receptor coactivator 1. Description: TR-FRET dose response biochemical High Throughput Screening assay for agonists of the steroid receptor coactivator 1 (SRC-1) recruitment by the peroxisome proliferator-activated receptor gamma (PPAR gamma): non-selective agonists. [Related pubchem assays (depositor defined):AID1300, AID1808, AID504735, AID631]. The data set is classed as protein assay.

For data set [5], the target named is T3, Peroxisome proliferator-activated receptor gamma/Nuclear receptor coactivator 3. Description: TR-FRET dose response biochemical High Throughput Screening assay for agonists of the steroid receptor coactivator 3 (SRC-3) recruitment by the peroxisome proliferator-activated receptor gamma (PPAR gamma): non-selective agonists. [Related pubchem assays: 1301 (Confirmation screen.), 1048 (Primary screen.)]. It counts as functional.

Data set [6] has as its target T1, Peroxisome proliferator-activated receptor gamma/Nuclear receptor coactivator 2. In words: TR-FRET dose response biochemical High Throughput Screening assay for agonists of the steroid receptor coactivator 2 (SRC-2) recruitment by the peroxisome proliferator-activated receptor gamma (PPAR gamma): non-selective agonists. [Related pubchem assays: 1297, 1032 ]. The data set is classed as functional.

Data set [7] concerns the target T4, Short transient receptor potential channel 4 (Mus musculus, UniProt Q9QUQ5).
T4 sequence (Q9QUQ5 whole entry): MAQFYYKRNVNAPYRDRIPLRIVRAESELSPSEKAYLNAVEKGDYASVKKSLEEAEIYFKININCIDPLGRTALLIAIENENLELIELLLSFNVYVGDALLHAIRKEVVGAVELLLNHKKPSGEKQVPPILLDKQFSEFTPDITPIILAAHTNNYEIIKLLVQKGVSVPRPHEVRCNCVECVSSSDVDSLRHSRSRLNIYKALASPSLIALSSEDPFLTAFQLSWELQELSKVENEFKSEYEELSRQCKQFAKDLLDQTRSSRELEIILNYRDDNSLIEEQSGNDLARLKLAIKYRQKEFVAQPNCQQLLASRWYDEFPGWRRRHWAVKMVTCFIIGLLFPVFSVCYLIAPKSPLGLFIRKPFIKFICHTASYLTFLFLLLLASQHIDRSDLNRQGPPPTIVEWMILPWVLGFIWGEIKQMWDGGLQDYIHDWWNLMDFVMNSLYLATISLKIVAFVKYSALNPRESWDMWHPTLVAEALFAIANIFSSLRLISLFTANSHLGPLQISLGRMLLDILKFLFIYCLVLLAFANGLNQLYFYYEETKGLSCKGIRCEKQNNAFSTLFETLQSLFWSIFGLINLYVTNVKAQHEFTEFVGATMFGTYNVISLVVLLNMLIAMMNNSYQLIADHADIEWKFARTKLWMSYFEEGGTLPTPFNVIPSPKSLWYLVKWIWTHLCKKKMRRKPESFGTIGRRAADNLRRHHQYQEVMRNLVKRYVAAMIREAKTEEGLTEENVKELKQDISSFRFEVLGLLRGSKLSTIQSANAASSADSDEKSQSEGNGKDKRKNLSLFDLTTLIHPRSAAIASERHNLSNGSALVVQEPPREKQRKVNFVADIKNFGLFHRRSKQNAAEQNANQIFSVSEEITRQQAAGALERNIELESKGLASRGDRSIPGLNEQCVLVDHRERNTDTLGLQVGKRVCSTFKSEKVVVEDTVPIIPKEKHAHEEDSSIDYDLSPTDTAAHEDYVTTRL
In words: mouse TRPC4 channel inhibitors, dose response, cell-based, HEK293 TRPC4/mu-opioid, Fluo-4 calcium (AID 434942).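 Also: potency of inhibitors blocking the TRPC4 calcium response.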 The data set is classed as functional.

The target of data set [8] is T4, Short transient receptor potential channel 4. Description: mouse TRPC4 channel activators, dose response, cell-based, HEK293 TRPC4/mu-opioid, Fluo-4 calcium (AID 434937). It counts as functional.
Data set [9] addresses T5, Microphthalmia-associated transcription factor (Homo sapiens, UniProt O75030).
T5 sequence (O75030 whole entry): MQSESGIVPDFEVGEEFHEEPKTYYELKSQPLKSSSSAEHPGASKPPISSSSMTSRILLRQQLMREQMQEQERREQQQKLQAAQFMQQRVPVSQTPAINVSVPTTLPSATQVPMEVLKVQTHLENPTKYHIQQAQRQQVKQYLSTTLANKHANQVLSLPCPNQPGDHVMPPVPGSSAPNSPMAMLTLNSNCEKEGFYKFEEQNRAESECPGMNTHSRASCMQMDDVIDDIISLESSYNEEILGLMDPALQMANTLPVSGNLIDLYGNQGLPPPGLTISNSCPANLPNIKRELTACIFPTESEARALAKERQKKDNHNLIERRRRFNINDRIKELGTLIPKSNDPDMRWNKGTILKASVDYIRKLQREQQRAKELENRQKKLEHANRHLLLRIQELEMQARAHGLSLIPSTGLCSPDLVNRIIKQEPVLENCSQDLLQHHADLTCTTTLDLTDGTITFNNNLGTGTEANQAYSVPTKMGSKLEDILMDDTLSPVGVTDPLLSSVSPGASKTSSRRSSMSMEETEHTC
Description: TRPM1 promoter luciferase signal decrease, dose response, MITF inhibitor project, cell-based, SK-MEL-5, cherry-picked, set 3 (AID 493073).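 Also: SK-MEL-5 melanoma cells with luciferase driven by the MITF target TRPM1 promoter.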 It counts as functional.

Data set [10] has as its target T6, Luciferin 4-monooxygenase (Photinus pyralis, UniProt P08659). Description: Counter Screen for Luciferase-based Assay Positives. [Related pubchem assays: 620, 618, 411 ].
Another data set relates to HT-1080. In words: cytotoxicity in HT1080 fibrosarcoma cells, cell-based, fluorescence readout (AID 620). The data set is classed as functional. Conditions: Homo sapiens.
Data set [11] has as its system HEK293. In words: NOD1 signaling inhibitors, primary screen, cell-based, luminescence, uHTS (AID 1578). It counts as functional. Conditions: Homo sapiens.
The test system of data set [12] is HEK293. Description: cells. The data set is classed as functional, cell-based. Conditions: Homo sapiens.
In data set [13] the test system is HEK293. Description: cells. It counts as functional, cell-based. Conditions: Homo sapiens. This is another data set of the same source.
For data set [14], the system named is HEK293. Description: NOD2 signaling inhibitors in MDP-stimulated cells, cell-based, uHTS, luminescence (AID 2001). It counts as functional. Conditions: Homo sapiens.
Data set [15] concerns the target T7, Voltage-gated N-type calcium channel alpha-1B subunit/Amyloid beta A4 precursor protein-binding family A member 1 (Homo sapiens, UniProt Q00975+Q02410). The data set is classed as protein assay.
The target in data set [16] is T7, Voltage-gated N-type calcium channel alpha-1B subunit/Amyloid beta A4 precursor protein-binding family A member 1. The data set is classed as protein assay. The source holds these as a separate data set.
Data set [17] in a line: microbe, parasite or virus in culture. It counts as functional. Conditions: Mycobacterium tuberculosis.
For another data set, the target named is T8, Cytochrome P450 1A2 (Homo sapiens, UniProt P05177).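 Also: PubChem cytochrome P450 panel assay, CYP1A2 panel member.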
T8 sequence (P05177 whole entry): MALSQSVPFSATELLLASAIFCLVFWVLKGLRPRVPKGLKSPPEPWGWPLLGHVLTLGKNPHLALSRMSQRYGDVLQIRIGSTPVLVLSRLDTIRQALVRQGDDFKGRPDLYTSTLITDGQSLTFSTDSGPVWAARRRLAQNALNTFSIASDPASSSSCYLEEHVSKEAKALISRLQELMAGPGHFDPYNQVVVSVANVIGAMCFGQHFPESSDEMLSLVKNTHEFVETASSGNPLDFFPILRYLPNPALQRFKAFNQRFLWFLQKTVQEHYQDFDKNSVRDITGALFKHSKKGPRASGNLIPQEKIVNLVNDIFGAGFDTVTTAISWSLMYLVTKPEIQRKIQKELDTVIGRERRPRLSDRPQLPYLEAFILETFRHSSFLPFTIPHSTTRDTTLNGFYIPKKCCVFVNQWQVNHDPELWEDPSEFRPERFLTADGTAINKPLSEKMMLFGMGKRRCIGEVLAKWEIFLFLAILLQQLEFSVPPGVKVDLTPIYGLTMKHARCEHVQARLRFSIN

In another data set the target is Cytochrome P450 2C9 (Homo sapiens, UniProt P11712).
Data set [18] can be described thus: inhibitors of intracellular T. cruzi replication, confirmation, NIH3T3 host cells, beta-gal luminescence (AID 2044).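 Also: intracellular parasites grown in NIH/3T3 mouse fibroblasts as host cells; luminescent beta-galactosidase reporter signal from transgenic T. cruzi replicating inside host cells; inhibitors lower the luminescence signal.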 The data set is classed as functional, cell-based.
Data set [19] is described as follows: cytotoxicity toward NIH3T3 fibroblasts, dose response, counter-screen, cell-based, ATP luminescence, mouse fibroblasts (AID 2010).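 Also: cells exposed to compound for about 90 hours before reading.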 It counts as functional.
The target of data set [20] is T6, Luciferin 4-monooxygenase. Description: firefly luciferase enzyme inhibitors, dose response, biochemical, luminescence (AID 1891).
Data set [21] in a line: Luminescence Cell-Based Dose Confirmation HTS to Identify Inhibitors of Platelet Dense Granule Release. [Related pubchem assays: 1663 (Primary HTS), 1678 (Summary of Project)]. It counts as functional.
A further data set relates to BJ. In words: cytotoxicity toward Ras-transformed BJeLR fibroblasts, dose response, cell-based, alamar blue fluorescence, cherrypicked samples (AID 2631).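 Also: confirmatory dose-response assay in RAS-dependent BJ fibroblasts engineered with TERT, LT and ST, with cytotoxicity read by fluorescence.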 It counts as functional. Conditions: Homo sapiens.

T6 sequence (P08659 whole entry): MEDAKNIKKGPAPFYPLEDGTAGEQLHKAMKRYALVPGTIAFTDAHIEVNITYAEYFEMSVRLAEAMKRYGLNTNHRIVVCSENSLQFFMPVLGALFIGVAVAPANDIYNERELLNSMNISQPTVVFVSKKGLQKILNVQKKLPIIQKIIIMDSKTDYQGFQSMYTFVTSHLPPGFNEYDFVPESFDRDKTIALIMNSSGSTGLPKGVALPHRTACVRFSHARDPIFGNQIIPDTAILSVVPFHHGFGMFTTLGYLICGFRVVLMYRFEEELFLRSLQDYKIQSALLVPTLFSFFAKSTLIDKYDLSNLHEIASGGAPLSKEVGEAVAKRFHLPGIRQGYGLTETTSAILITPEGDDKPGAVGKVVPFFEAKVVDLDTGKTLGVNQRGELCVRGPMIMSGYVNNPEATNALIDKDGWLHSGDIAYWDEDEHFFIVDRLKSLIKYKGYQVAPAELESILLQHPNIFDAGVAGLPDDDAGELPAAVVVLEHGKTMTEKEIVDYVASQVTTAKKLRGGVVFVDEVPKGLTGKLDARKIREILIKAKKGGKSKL
T2 sequence (P37231 whole entry): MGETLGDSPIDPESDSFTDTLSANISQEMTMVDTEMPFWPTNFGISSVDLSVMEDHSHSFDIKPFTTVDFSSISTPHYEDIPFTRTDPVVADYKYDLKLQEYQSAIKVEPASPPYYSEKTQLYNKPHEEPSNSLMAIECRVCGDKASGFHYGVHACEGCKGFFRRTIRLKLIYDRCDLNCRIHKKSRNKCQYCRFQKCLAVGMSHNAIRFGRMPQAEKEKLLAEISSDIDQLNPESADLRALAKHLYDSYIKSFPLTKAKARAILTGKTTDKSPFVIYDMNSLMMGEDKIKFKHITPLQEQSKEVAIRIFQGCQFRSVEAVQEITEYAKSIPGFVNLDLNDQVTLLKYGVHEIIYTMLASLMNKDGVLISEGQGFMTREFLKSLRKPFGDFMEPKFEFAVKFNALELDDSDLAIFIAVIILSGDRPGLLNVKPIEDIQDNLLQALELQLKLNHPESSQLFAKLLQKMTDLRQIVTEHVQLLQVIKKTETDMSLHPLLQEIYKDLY
T2 sequence (Q15788 whole entry, further chain): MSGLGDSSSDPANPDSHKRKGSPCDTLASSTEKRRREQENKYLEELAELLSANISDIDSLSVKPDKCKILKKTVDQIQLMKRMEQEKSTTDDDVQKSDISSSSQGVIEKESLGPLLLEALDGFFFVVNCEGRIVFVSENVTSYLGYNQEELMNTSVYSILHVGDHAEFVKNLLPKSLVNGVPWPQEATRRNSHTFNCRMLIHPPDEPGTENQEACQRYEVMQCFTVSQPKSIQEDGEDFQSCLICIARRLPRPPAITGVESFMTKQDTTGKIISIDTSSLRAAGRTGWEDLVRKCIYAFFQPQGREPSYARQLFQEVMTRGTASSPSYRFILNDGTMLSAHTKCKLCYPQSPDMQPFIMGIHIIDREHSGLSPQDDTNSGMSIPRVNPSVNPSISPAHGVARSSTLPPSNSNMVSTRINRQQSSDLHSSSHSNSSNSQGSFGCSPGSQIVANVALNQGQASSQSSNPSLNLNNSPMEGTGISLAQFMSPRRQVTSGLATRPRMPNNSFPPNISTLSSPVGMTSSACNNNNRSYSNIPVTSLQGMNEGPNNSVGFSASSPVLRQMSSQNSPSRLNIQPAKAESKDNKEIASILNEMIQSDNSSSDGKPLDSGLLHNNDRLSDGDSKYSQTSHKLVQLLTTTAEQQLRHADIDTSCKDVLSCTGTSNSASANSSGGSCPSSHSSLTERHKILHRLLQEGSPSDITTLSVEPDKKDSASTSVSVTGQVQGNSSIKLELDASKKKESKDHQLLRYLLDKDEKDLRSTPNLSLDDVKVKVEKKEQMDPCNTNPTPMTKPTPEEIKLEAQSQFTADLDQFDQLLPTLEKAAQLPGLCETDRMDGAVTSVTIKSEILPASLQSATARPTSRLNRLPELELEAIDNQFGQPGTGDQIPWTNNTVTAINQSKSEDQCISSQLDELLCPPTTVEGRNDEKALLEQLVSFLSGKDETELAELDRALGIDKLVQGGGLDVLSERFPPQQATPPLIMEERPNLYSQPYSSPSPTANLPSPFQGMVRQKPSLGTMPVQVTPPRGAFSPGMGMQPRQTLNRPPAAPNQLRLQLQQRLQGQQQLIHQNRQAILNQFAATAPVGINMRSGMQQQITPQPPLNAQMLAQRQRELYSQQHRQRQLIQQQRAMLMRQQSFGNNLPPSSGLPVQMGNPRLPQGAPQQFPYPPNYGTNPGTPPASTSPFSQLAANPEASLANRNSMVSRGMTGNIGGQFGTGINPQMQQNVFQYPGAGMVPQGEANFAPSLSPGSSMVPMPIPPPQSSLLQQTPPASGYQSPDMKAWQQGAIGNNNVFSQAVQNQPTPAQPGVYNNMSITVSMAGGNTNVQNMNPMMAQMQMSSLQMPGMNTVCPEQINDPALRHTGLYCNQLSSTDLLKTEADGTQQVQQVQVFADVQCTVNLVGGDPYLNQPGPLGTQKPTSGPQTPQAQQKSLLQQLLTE
T1 sequence (P37231 whole entry): as the sequence (P37231 whole entry) above
T1 sequence (Q15596 whole entry, further chain): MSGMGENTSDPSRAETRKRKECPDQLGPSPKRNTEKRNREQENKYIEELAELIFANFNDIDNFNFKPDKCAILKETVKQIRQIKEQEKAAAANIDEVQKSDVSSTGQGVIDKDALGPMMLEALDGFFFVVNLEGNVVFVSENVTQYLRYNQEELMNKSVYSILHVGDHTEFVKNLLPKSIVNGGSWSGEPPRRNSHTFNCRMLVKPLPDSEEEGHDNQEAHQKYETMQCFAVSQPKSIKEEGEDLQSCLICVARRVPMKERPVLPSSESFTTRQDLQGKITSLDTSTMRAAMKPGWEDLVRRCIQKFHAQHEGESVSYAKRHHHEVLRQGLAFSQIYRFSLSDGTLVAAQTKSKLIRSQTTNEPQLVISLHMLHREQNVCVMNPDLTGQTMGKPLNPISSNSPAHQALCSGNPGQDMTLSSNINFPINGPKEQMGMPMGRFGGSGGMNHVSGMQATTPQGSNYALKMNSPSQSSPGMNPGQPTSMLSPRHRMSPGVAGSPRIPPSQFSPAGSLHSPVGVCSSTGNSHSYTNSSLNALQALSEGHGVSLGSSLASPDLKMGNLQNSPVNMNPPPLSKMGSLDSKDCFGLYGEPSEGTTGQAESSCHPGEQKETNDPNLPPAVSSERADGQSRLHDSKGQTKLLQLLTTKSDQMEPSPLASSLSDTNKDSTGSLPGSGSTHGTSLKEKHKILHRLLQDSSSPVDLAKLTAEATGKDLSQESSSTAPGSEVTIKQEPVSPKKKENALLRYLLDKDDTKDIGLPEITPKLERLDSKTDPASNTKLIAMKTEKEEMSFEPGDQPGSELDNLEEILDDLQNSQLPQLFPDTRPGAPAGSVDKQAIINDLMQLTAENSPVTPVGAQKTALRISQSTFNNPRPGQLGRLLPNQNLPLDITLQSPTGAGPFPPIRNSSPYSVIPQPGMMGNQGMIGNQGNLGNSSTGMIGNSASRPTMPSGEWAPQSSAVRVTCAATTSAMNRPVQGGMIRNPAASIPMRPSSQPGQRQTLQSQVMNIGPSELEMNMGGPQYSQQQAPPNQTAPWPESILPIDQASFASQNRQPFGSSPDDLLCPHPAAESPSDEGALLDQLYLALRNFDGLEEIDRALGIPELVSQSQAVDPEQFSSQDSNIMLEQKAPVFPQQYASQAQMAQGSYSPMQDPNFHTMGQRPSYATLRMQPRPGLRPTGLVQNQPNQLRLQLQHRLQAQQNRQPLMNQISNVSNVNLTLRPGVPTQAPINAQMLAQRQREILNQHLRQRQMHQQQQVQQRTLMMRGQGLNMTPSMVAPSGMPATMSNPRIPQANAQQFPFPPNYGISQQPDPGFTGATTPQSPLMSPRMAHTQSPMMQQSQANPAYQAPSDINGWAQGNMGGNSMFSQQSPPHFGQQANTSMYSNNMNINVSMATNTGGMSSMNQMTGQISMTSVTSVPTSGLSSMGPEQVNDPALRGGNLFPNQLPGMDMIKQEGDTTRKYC
Chain of Cytochrome P450 2C9 (P11712 whole entry): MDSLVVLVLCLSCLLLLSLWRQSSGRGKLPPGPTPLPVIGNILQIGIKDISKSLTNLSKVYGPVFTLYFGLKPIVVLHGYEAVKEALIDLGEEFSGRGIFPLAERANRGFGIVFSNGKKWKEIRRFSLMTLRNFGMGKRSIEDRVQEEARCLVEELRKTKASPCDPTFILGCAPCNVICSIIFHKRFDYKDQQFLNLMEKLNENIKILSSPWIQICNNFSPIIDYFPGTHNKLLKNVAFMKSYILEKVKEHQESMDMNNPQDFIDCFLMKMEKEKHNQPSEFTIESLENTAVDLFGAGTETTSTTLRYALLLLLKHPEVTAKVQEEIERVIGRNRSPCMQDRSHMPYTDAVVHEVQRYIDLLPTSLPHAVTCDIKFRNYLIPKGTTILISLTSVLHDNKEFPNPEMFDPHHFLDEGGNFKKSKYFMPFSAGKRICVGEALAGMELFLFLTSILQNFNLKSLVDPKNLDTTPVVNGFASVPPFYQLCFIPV

In the case of `COc1ccc(Nc2nc(S(=O)(=O)c3ccc(C)cc3)c(Cl)s2)cc1`, the concentration for a half-maximal effect (EC50) in data set [1], in data set [2] and in [3] was > 79.4 µM (not active) each time.
In the case of `COc1ccc2sc3c(O)nc4ccccc4c3c2c1`, the values for the EC50 in [1], in data set [2] and in data set [3] were 12.1 µM (not active), 11 µM (not active) and 11.2 µM (not active), respectively.
Take `Cc1ccc(C(=O)C2=C(O)C(=O)N(c3ncccn3)C2c2ccc(Cl)cc2)o1` (configuration not stated): the EC50 in data set [4] was > 79.4 µM (inactive); in data set [5] it was > 79.4 µM (not active); in [6] it was 35.8 µM (not active).
Take `O=[N+]([O-])c1cc2c(cc1CNCCc1ccc3c(c1)OCO3)OCO2`: the EC50 was 1.06 µM (active) in [7] and 3.35 µM (active) in data set [8].
With `O=C(Nc1cc(-c2nc3ncccc3o2)ccc1Cl)c1ccc([N+](=O)[O-])o1`, the AC50 in data set [9] is 5.76 µM (active).
Consider `c1ccc(-n2ncc3c2ncn2nc(-c4ccco4)nc32)cc1`, for which the values for the EC50 in data set [1], in [2] and in [3] were 16.2 µM (not active), > 79.4 µM (not active) and > 79.4 µM (not active), respectively.
As for `COc1cccc(CNC(=O)CSc2cc(=O)n(C)c3ccccc23)c1`, the EC50 in [4] is > 79.4 µM (inactive); in data set [5], > 79.4 µM (not active); in data set [6], > 79.4 µM (not active).
Regarding `CC1CCc2nc(NC(=O)CN3CCN(Cc4ccc5c(c4)OCO5)CC3)sc2C1` (configuration not stated), the EC50 in data set [7] was 0.299 µM (active).
As for `Cc1ccccc1Cn1nnc(-c2cccc(C(=O)O)c2)n1`, the EC50 in [10] is reported as > 100 µM (not active); with HT-1080, > 50 µM (not active).
Consider `O=C(Nc1ccc(N2CCCCC2)cc1)c1ccccc1`, for which the EC50 in data set [1] is > 79.4 µM (not active); in data set [2], > 79.4 µM (not active); in [3] it was > 79.4 µM (not active); in data set [10], 1.28 µM (active); in the data set with HT-1080, > 50 µM (not active).
With `COc1ccc(NS(=O)(=O)c2ccc3c(c2)Cc2ccccc2-3)cn1`, the EC50 with HEK293 [11] was 5.22 µM (active). In addition, the IC50 was 9.79 µM (active) in the data set on HEK293 [12], > 20 µM (inactive) in the data set with HEK293 [13] and 8.27 µM (active) in the data set on HEK293 [14].
In the case of `N#Cc1c(Cl)nc(SCc2ccccc2)nc1-c1ccccc1`, the EC50 is 4.02 µM (active) in data set [4], > 79.4 µM (not active) in data set [5] and 5.16 µM (active) in [6].
Take `Cc1cc(Cl)c2oc(C(=O)N(C)Cc3nccn3C)c(C)c2c1`: the EC50 in data set [7] is 0.531 µM (active).
In the case of `O=C(NCc1ccc2c(c1)OCO2)Nc1ccc2nsnc2c1`, the results for the EC50 in data set [1], in [2] and in data set [3] were 17.8 µM (not active), 20.4 µM (not active) and 29.8 µM (not active), respectively.
For the compound `C=CCOc1ccc(/C=C2\SC(=S)N(N3CCOCC3)C2=O)cc1`, the results for the IC50 in [15] and in [16] were 4.43 µM (active) and > 50 µM (inactive), respectively.
Consider `CCc1ccc(-c2cc(C)no2)cc1S(=O)(=O)NCCCN1CCN(c2ccccc2)CC1`, for which the EC50 with HEK293 [11] was 6.88 µM (active). Further, the IC50 is 4.42 µM (active) in the data set with HEK293 [12], 7.44 µM (active) with HEK293 [13] and 4.26 µM (active) with HEK293 [14]. Also, the CC50 in data set [17] is 30.9 µM (active).
For `CCn1c(N2CCN(C(=O)Nc3ccc(F)cc3)CC2)nc2ccccc21`, in data set [8], the EC50 is 0.944 µM (active). Also, the values for the AC50 at Cytochrome P450 1A2 and at Cytochrome P450 2C9 were 20 µM (inconclusive) and “inconclusive”, respectively.
With `COc1cc(CNCCCN2CCOCC2)cc(Br)c1OCc1ccc(Cl)cc1`, the values for the EC50 in [18], in data set [19] and in data set [7] were 0.531 µM (active), 24 µM (active) and 5.96 µM (active), respectively.
For the compound `CC1CC(C)CN(CCCNC(=O)Cn2cccc2C(=O)c2ccccc2)C1` (configuration not stated), the EC50 in [8] is 1.19 µM (active).
As for `O=c1c2cn[nH]c2[nH]c(=S)n1-c1cccc2ccccc12`, the EC50 in data set [4] is > 79.4 µM (inactive); in data set [5] it was > 79.4 µM (not active); in data set [6], > 79.4 µM (not active).
Regarding `COc1ccc2nc(NC(=O)c3ccoc3C)sc2c1`, the results for the EC50 (in data set [20]; in data set [21]; in the data set with BJ) were 0.263 µM (active), 0.468 µM (active) and > 133 µM (inactive), respectively.
